Measured values: ChEMBL document CHEMBL1125524, “Adenosine A1 antagonists. 2. Structure-activity relationships on diuretic activities and protective effects against acute renal failure” (J Med Chem, 1992)

Tests used:
Rattus norvegicus [1] = species on record: Rattus norvegicus; assay: animal or person; conditions: ip, read-out: Inhibition, dose 1 mg/kg, route intraperitoneal
Adenosine A2 receptor = Adenosine A2 receptor (Rattus norvegicus, UniProt P29276+P30543)
Rattus norvegicus [2] = assay: Serum creatinine concentration measured after intraperitoneal administration of 1 mg/kg of compound to rats(vehicle 5.07+/-0.33); assay type: functional
Adenosine receptor A1 = target: T1, Adenosine receptor A1 (Cavia porcellus, UniProt P47745)
T1 sequence (P47745 whole entry): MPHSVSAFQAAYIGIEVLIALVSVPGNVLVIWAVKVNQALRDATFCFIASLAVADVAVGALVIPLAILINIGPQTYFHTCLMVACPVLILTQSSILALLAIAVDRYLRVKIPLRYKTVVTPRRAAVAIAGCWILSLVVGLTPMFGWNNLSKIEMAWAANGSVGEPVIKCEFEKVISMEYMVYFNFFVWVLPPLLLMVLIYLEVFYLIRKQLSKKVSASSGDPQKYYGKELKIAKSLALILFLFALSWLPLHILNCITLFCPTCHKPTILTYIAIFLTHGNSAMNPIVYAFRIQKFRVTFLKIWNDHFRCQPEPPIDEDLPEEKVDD
Description: Binding affinity against adenosine A1 receptor in guinea pig forebrain membranes using N6-[3H]cyclohexyladenosine as radioligand

Rattus norvegicus [3] = assay: Effect on urinary excretion potassium and sodium after oral administration of 25 mg/kg to rats(potassium and sodium excretion in control rat is 0.130+/-0.009); assay type: functional, Urine
Rattus norvegicus [4] = assay: Ratio of urinary excretion value (Na+ concentration) in treated rats to that in control rats, at a peroral dose of 25 mg/Kg; assay type: functional, Urine
Rattus norvegicus [5] = assay: Percent inhibition of Urea nitrogen by the compound given as ratio of UN value in treated to vehicle treated ones after intraperitoneal administration of 1 mg/kg of compound to rats(vehicle 195.8+/-14.4); assay type: functional; conditions: Rattus norvegicus, ip
Rattus norvegicus [6] = assay: Urea nitrogen concentration measured after intraperitoneal administration of 1 mg/kg of compound to rats(vehicle 195.8+/-14.4); assay type: functional
Rattus norvegicus [7] = assay: Ratio of urinary excretion value (urinary volume) in treated rats to that in control rats, at a peroral dose of 25 mg/Kg; assay type: functional, Urine
Rattus norvegicus [8] = assay: Oral diuretic activity was measured after oral administration of 25 mg/kg to rats(control volume is 0.94+/-0.04); assay type: functional, Urine
Rattus norvegicus [9] = assay: Oral diuretic activity was measured after oral administration of 1.6 mg/kg to rats(control volume is […]+/-[…]); assay type: functional, Urine
Rattus norvegicus [10] = assay: Ratio of urinary excretion value (urinary volume) in treated rats to that in control rats, at a peroral dose of 1.6 mg/Kg; assay type: functional, Urine
Rattus norvegicus [11] = assay: Percent inhibition of Urea nitrogen by the compound given as ratio of UN value in treated to vehicle treated ones fter intraperitoneal administration of 10 mg/kg of compound to rats(vehicle 141.3+/-6.6); assay type: functional; conditions: ip
Rattus norvegicus [12] = assay: Urea nitrogen concentration measured after intraperitoneal administration of 10 mg/kg of compound to rats(vehicle 141.3+/-6.6); assay type: functional
Rattus norvegicus [13] = assay: Ratio of urinary excretion value (Na+ concentration) in treated rats to that in control rats, at a peroral dose of 1.6 mg/Kg; assay type: functional, Urine
Rattus norvegicus [14] = assay: Ratio of sodium ion/potassium ion concentration in treated rats to that in control rats, at a peroral dose of 1.6 mg/Kg; assay type: functional
Rattus norvegicus [15] = assay: Percent inhibition of Urea nitrogen by the compound given as ratio of UN value in treated to vehicle treated ones after intraperitoneal administration of 1 mg/kg of compound to rats(vehicle 178+/-11.3); assay type: functional; conditions: ip
Rattus norvegicus [16] = assay: Oral diuretic activity was measured after oral administration of 25 mg/kg to rats(control volume is 0.80+/-0.04); assay type: functional, Urine
Rattus norvegicus [17] = assay: Effect on urinary excretion potassium and sodium after oral administration of 1.6 mg/kg to rats(potassium and sodium excretion in control rat is 0.261+/-0.008); assay type: functional, Urine
Rattus norvegicus [18] = assay: Effect on urinary excretion potassium and sodium after oral administration of 25 mg/kg to rats(potassium and sodium excretion in control rat is 0.134+/-0.004); assay type: functional, Urine
Rattus norvegicus [19] = assay: Percent inhibition of serum creatinine by the compound given as ratio of Cr value in treated to vehicle treated ones after intraperitoneal administration of 1 mg/kg of compound to rats(vehicle 3.86+/-0.27); assay type: functional; conditions: ip
Rattus norvegicus [20] = assay: Percent inhibition of serum creatinine by the compound given as ratio of Cr value in treated to vehicle treated ones fter intraperitoneal administration of 10 mg/kg of compound to rats(vehicle 3.94+/-0.24); assay type: functional; conditions: ip
Rattus norvegicus [21] = assay: Serum creatinine concentration measured after intraperitoneal administration of 10 mg/kg of compound to rats(vehicle 3.94+/-0.24); assay type: functional
Rattus norvegicus [22] = assay: Ratio of sodium ion/potassium ion concentration in treated rats to that in control rats, at a peroral dose of 25 mg/Kg; assay type: functional
Rattus norvegicus [23] = assay: Urea nitrogen concentration measured after intraperitoneal administration of 1 mg/kg of compound to rats(vehicle 178+/-11.3); assay type: functional
Rattus norvegicus [24] = assay: Ratio of urinary excretion value (urinary volume) in treated rats to that in control rats, at a peroral dose of 6.25 mg/Kg; assay type: functional, Urine
Rattus norvegicus [25] = assay: Serum creatinine concentration measured after intraperitoneal administration of 1 mg/kg of compound to rats(vehicle 3.86+/-0.27); assay type: functional
Rattus norvegicus [26] = assay: Ratio of urinary excretion value (Na+ concentration) in treated rats to that in control rats, at a peroral dose of 6.25 mg/Kg; assay type: functional, Urine

CCCn1c(=O)c2nc(C3CC4C=CC3C4)[nH]c2n(CCC)c1=O (stereo in doubt; 18)
inhibition in vivo at 1 mg/kg (Rattus norvegicus [1]): 56% | Ki (Adenosine A2 receptor): 210 nM | Cr (Rattus norvegicus [2]): 2.23 mg/dL | Ki (Adenosine receptor A1): 3.4 nM | Na (Rattus norvegicus [3]): 0.271 m equiv 6hr-1 100g-1 | T/C (Rattus norvegicus [4]): 2.09 | inhibition in vivo at 1 mg/kg (Rattus norvegicus [5]): 53% | UN (Rattus norvegicus [6]): 92.7 mg/dL | T/C (Rattus norvegicus [7]): 1.87 | Urine volume (Rattus norvegicus [8]): 1.75 ml 6hr-1 100g-1

Cn1c(=O)c2nc(-c3ccccc3)[nH]c2n(C)c1=O [8-PHENYL THEOPHYLLINE]
Urine volume (Rattus norvegicus [9]): 0.88 ml 6hr-1 100g-1 | T/C (Rattus norvegicus [10]): 0.63 | inhibition in vivo at 10 mg/kg (Rattus norvegicus [11]): 56% | Ki (Adenosine A2 receptor): 2300 nM | UN (Rattus norvegicus [12]): 62.4 mg/dL | Ki (Adenosine receptor A1): 1600 nM | T/C (Rattus norvegicus [13]): 0.87 | Na+/K+ (Rattus norvegicus [14]): 0.87 | inhibition in vivo at 1 mg/kg (Rattus norvegicus [15]): 17% | Urine volume (Rattus norvegicus [16]): 1.1 ml 6hr-1 100g-1 | Na (Rattus norvegicus [17]): 0.175 m equiv 6hr-1 100g-1 | Na (Rattus norvegicus [18]): 0.201 m equiv 6hr-1 100g-1 | inhibition in vivo at 1 mg/kg (Rattus norvegicus [19]): 19% | inhibition in vivo at 10 mg/kg (Rattus norvegicus [20]): 56% | T/C (Rattus norvegicus [4]): 1.39 | T/C (Rattus norvegicus [7]): 1.38 | Cr (Rattus norvegicus [21]): 1.74 mg/dL | Na+/K+ (Rattus norvegicus [22]): 1.39 | UN (Rattus norvegicus [23]): 148.3 mg/dL | T/C (Rattus norvegicus [24]): 1.79 | Cr (Rattus norvegicus [25]): 3.14 mg/dL | T/C (Rattus norvegicus [26]): 1.54
